Assay: Water solubility of the isolated powder (observation after work-up)
Format: physicochemical
Settings: isolated lemon-yellow powder
Protocol: (§1) To a premixed solution of 6.0 g ethylene diamine in 30 ml ethanol was added 30.8 g of 5-benzoyl-4-hydroxy-2-methoxy benzenesulfonic acid and stirred well until a solution was formed. The mixture was heated to 130° C. for 16 hours and then cooled to 70° C. The ethanol residue was flashed off in a vacuum oven at 70° C.
as §1, with “11.6” for “6.0”, “hexamethylene” for “ethylene”, “40 g” for “30 ml”
An amount of 7.4 g propylene diamine, 30.8 g of 5-benzoyl-4-hydroxy-2-methoxy benzenesulfonic acid, and 30 ml of 1:1 ethanol-water mixture was stirred well until a clear solution was obtained. […] The ethanol residue was flashed off in a vacuum oven at 70° C.

2-hydroxy-4-methoxy-5-(N-6-aminohexyl) sulfonamido-4′-methylbenzophenone [Example 4]
solubility in water: insoluble in water

2-hydroxy-4-methoxy-5-(N-3-aminopropyl)sulfonamido-4′-methylbenzophenone [Example 5]
solubility in water: insoluble in water

Reference: patent US10351523B2, “UV-absorbing compounds with at least one reactive hydrogen” (ISP INVESTMENTS LLC, priority 2013, dated 2019)
